Test system: HEK-293, SH-SY5Y, primary human keratinocytes, THP-1 differentiated with PMA
Assay: Transcriptomics (microarray) after anatabine treatment of 4 cell systems
Assay type: cell-based
Details: for Fold Change TXNRD1: gene TXNRD1; for Fold Change ZBTB21: gene ZBTB21; for Fold Change ZFAND2A: gene ZFAND2A
Protocol: To investigate the signalling pathways triggered by anatabine, 4 cell systems (HEK-293, SH-SY5Y, primary human keratinocytes, THP-1 differentiated with PMA) were treated with 4 concentrations of anatabine (100, 200, 300, 400 μM) for 6 hours, after which transcriptomics measurements were performed.
HEK-293 is a human embryonic kidney cell line devoid of nicotinic receptors. It can be relatively easily transfected and therefore used as a tool to express various subtypes of nicotinic receptors or reporter genes such as NRF2-driven luciferase, which were also used in this study. HEK-293 were seeded in a cell culture medium consisting of EMEM, 10% FBS, 1% NEAA, 1% Sodium Pyruvate and 1% PenStrep. 60,000 cells were seeded per well of a 96-well plate.
SH-SY5Y is a human bone marrow neuroblastoma cell line that has been used by researchers to investigate the potential anti-inflammatory effect of anatabine. SH-SY5Y were seeded in a cell culture medium consisting of 50% EMEM and 50% Ham's F12 nutrient and including 10% FBS, 1% PenStrep and 1% L-glutamine. 15,000 cells were seeded per well of a 96-well plate.
Primary human keratinocytes have been included as a relevant cell system for skin. The batch of keratinocytes was selected in order to have healthy, non-smoker, 20-60 years old, Caucasian donors. The keratinocytes were seeded in a cell culture medium consisting of KGM-Gold Keratinocyte Growth Medium. 17,500 cells were seeded per well of a 96-well plate.
The human leukaemia-derived monocytic cell line THP-1, is the most widely used in vitro model for primary human macrophage investigations. THP-1 cells were seeded in a cell culture medium consisting of RPMI, 10% FBS and 1% PenStrep and in the presence of 40 ng/ml phorbol 12-myristate 13-acetate (PMA). 100,000 cells were seeded per well of a 96-well plate, having a total volume of […] per well. 48 hours later the medium was changed to the same culture medium but without PMA, and the culture was left to rest for 24 h before treatment.
All four cell systems were seeded in 96 well plates at a total volume of 190 μl per well to allow for a 20× compound stimulation with a volume of 10 μL. 24 hours after seeding—or in the case of THP-1, 24 h after changing to non-PMA medium—four cell systems were stimulated with anatabine (prepared at 20× the corresponding target concentration) to obtain a final molar concentration of 100, 200, 300, 400 μM anatabine.
In order to generate the transcriptomics data, the four cell systems were exposed to various concentrations of anatabine (100, 200, 300, 400 μM) for 6 hours. The transcriptome of the cells was analysed by a microarray-based analysis.
The cells were lysed using RLT BUFFER (Qiagen Hilden, Germany) for all cell types except the keratinocytes which were lysed with QIAZOL LYSIS REAGENT (Qiagen). RNA isolation was performed with RNEASY MICRO KIT (Qiagen). RNA quantification was assessed with a NANODROP 1000 (ThermoFisher Waltham, MA, USA) and quality of the total RNA was verified acquiring a profile with a 2100 BIOANALYZER (Agilent Technologies, Santa Clara, CA, USA), requiring an RIN number greater than 6.0. 50 ng of total RNA were processed as described in the TECAN/NUGEN OVATION RNA AMPLIFICATION SYSTEM V2 (Tecan Mannedorf, Switzerland). Human Genome U133 Plus 2.0 array were used for hybridization on a THERMOFISHER OVEN 645, washed on THERMOFISHER GENECHIP™ FLUIDICS STATIONS 450DX (protocol FS450-0004) and scanned on a THERMOFISHER GENECHIP™ SCANNER 3000 7G.
Quality control check of all chips was done with the BIOCONDUCTOR affyPLM R package version 1.64. Following quality control procedures, differential gene expression analysis was performed using the BIOCONDUCTOR LIMMA R package version 3.44.3. Pairwise comparisons at the gene level, called systems response profiles (SRP), were computed by comparing each concentration-treatment with its respective vehicle control. […]

[1] = cell system THP1, anatabine 200 μM
[2] = cell system THP1, anatabine 300 μM
[3] = cell system THP1, anatabine 400 μM
[4] = cell system HEK293, anatabine 100 μM
[5] = cell system HEK293, anatabine 200 μM
[6] = cell system HEK293, anatabine 300 μM
[7] = cell system HEK293, anatabine 400 μM
[8] = cell system KEAT, anatabine 100 μM
[9] = cell system KEAT, anatabine 200 μM
[10] = cell system KEAT, anatabine 300 μM
[11] = cell system KEAT, anatabine 400 μM
[12] = cell system SHSY5Y, anatabine 100 μM
[13] = cell system SHSY5Y, anatabine 200 μM
[14] = cell system SHSY5Y, anatabine 300 μM
[15] = cell system SHSY5Y, anatabine 400 μM
[16] = cell system THP1, anatabine 100 μM

**Q.** Which results are given for `C1=CCC(c2cccnc2)NC1` (racemic) [anatabine, 1,2,3,6-Tetrahydro-2,3′-bipyridine]?
**A.** Fold Change (G0S2 gene, SHSY5Y, anatabine 200 μM): −0.07408; Fold Change (G0S2 gene, SHSY5Y, anatabine 300 μM): −0.1621; Fold Change (G0S2 gene, SHSY5Y, anatabine 400 μM): −0.6623; Fold Change (G0S2 gene, THP1, anatabine 100 μM): −0.1613; Fold Change (G0S2 gene, THP1, anatabine 200 μM): −0.07473; Fold Change (G0S2 gene, THP1, anatabine 300 μM): −0.2674; Fold Change (G0S2 gene, THP1, anatabine 400 μM): −0.3675; Fold Change (GCLM gene, HEK293, anatabine 100 μM): 0.1086; Fold Change (GCLM gene, HEK293, anatabine 200 μM): 0.5976; Fold Change (GCLM gene, HEK293, anatabine 300 μM): 0.7652; Fold Change (GCLM gene, HEK293, anatabine 400 μM): 1.165; Fold Change (GCLM gene, KEAT, anatabine 100 μM): 0.5698; Fold Change (GCLM gene, KEAT, anatabine 200 μM): 0.8549; Fold Change (GCLM gene, KEAT, anatabine 300 μM): 1.582; Fold Change (GCLM gene, KEAT, anatabine 400 μM): 1.567; Fold Change (GCLM gene, SHSY5Y, anatabine 100 μM): 0.3907; Fold Change (GCLM gene, SHSY5Y, anatabine 200 μM): 0.7053; Fold Change (GCLM gene, SHSY5Y, anatabine 300 μM): 1.629; Fold Change (GCLM gene, SHSY5Y, anatabine 400 μM): 2.292; Fold Change (GCLM gene, THP1, anatabine 100 μM): 0.2992; Fold Change (GCLM gene, THP1, anatabine 200 μM): 0.7816; Fold Change (GCLM gene, THP1, anatabine 300 μM): 1.645; Fold Change (GCLM gene, THP1, anatabine 400 μM): 2.36; Fold Change (HMOX1 gene, HEK293, anatabine 100 μM): 0.7745; Fold Change (HMOX1 gene, HEK293, anatabine 200 μM): 1.877; Fold Change (HMOX1 gene, HEK293, anatabine 300 μM): 2.27; Fold Change (HMOX1 gene, HEK293, anatabine 400 μM): 3.142; Fold Change (HMOX1 gene, KEAT, anatabine 100 μM): 3.914; Fold Change (HMOX1 gene, KEAT, anatabine 200 μM): 4.283; Fold Change (HMOX1 gene, KEAT, anatabine 300 μM): 5.733; Fold Change (HMOX1 gene, KEAT, anatabine 400 μM): 5.633; Fold Change (HMOX1 gene, SHSY5Y, anatabine 100 μM): 0.8699; NRF2 target genes (HMOX1, GCLM, NQO1, TXNRD1) mRNA (four cell lines, 100, 200, 300, 400 μM for 6 hours): dose-dependent increase; Fold Change TXNRD1 [1]: 0.4137; Fold Change TXNRD1 [2]: 0.8364; Fold Change TXNRD1 [3]: 1.246; Fold Change ZBTB21 [4]: 0.1286; Fold Change ZBTB21 [5]: 0.3704; Fold Change ZBTB21 [6]: 0.3353; Fold Change ZBTB21 [7]: 0.6783; Fold Change ZBTB21 [8]: 0.4558; Fold Change ZBTB21 [9]: 0.5643; Fold Change ZBTB21 [10]: 0.9994; Fold Change ZBTB21 [11]: 0.8602; Fold Change ZBTB21 [12]: 0.1782; Fold Change ZBTB21 [13]: 0.5134; Fold Change ZBTB21 [14]: 0.6287; Fold Change ZBTB21 [15]: 0.9685; Fold Change ZBTB21 [16]: −0.01334; Fold Change ZBTB21 [1]: 0.2576; Fold Change ZBTB21 [2]: 0.3746; Fold Change ZBTB21 [3]: 0.5865; Fold Change ZFAND2A [4]: 0.1376; Fold Change ZFAND2A [5]: 0.3375; Fold Change ZFAND2A [6]: 0.4979; Fold Change ZFAND2A [7]: 0.7014; Fold Change ZFAND2A [8]: 0.2592; Fold Change ZFAND2A [9]: 0.4658; Fold Change ZFAND2A [10]: 3.354; Fold Change ZFAND2A [11]: 1.766; Fold Change ZFAND2A [12]: 0.09166; Fold Change ZFAND2A [13]: 0.3919; Fold Change ZFAND2A [14]: 0.5328; Fold Change ZFAND2A [15]: 1.066; Fold Change ZFAND2A [16]: 0.1252; Fold Change ZFAND2A [1]: 0.2497; Fold Change ZFAND2A [2]: 0.5677; Fold Change ZFAND2A [3]: 1.236

Source: patent US20260224547A1, “COMPOSITIONS COMPRISING ANATABINE AND USES THEREOF” (Philip Morris Products S.A., priority 2021, published 2026)
